Publication PMC6954543, “A window-of-opportunity trial of the CXCR1/2 inhibitor reparixin in operable HER-2-negative breast cancer” (Breast Cancer Research : BCR, 2020)

What was measured:
[1] = Pharmacokinetics of single-agent oral reparixin in plasma; assay type: in vivo, human
Protocol: Samples for pharmacokinetics (PK) were collected at selected sites in consenting patients. Venous blood samples (6 mL) were collected from a forearm vein at times 0.0, 0.25, 0.5, 1.0, 2.0, 4.0, 6.0, and 8.0 h following reparixin administration on days 1 and 21. The blood samples were immediately centrifuged at 4 °C, 1200 relative centrifugal force (RCF), for 10 min, and the plasma collected. Each plasma sample was divided into 2 aliquots and stored in 2 pre-labeled polypropylene screw-capped tubes (about 2 mL each) at − 20 °C until analysis. The analysis was performed at the Dompé Analytical Development Laboratories in L’Aquila, Italy.

[2] = test system: ALDH1, CD24 and CD44 transcripts; assay: CSC markers in core biopsies by RT-PCR; assay type: in vivo, human; settings: 14 patients
Protocol: Core biopsy samples were placed in RNAlater, suspended in 700 μL of TRIzol® LS Reagent (Invitrogen) and homogenized using Bullet Blender (Next Advance Inc.). Next, RNA was extracted using the miRNeasy mini kit (Qiagen) and processed with the QIACube (Qiagen) automated low-throughput sample prep system. Thereafter, the isolated RNAs were reverse transcribed to cDNA (High Capacity cDNA Reverse Transcription Kit, ABI) and subsequently underwent quantitative RT-PCR (qRT-PCR) using 7900HT Fast Real-Time PCR System (ABI) to detect transcripts of markers associated with CSC (ALDH1, CD44, CD24, Akt, and PI3K), EMT (TWIST1, FOXC2, SNAIL1, SNAIL2, TG2, and ZEB1), epithelial cells (KRT19 and EpCAM), and leukocytes (CD45). We used average delta Ct (dCT) < 2 as a cutoff to determine the relative gene expression level. Since normal tissue was not available to act as the normalizer, we used GAPDH as the endogenous control (dCT = CTtarget − CTendogenous control).

CXCR1+ cells = assay: CXCR1+ cell evaluation in core biopsy samples by flow cytometry; assay type: in vivo, human
Excerpt: Patients underwent core biopsies at baseline (day − 14 to 0) and at the completion of therapy (day 21). Three to five ≥ 18-gage needle biopsies were taken to measure the changes in CSC populations and pathway markers. If not performed at the completion of treatment, a core biopsy was taken on the day of surgery by the same technique. A sample of the surgically resected tumor tissue was also taken. Additional analyses were directed to determine CXCR1 (PerCP/Cy5.5 mouse anti-human CD181 (CXCR1; BioLegend, San Diego, CA) and cell lineages using the following antibodies: APC mouse anti-human CD44 (BD Bioscience, San Jose, CA; catalog #559942), PE-Cy7 mouse anti-human CD24 (#561646), PE mouse anti-human CD2 (#555327), PE mouse anti-human CD31 (#555446), PE mouse anti-human CD3 (#555333), PE mouse anti-human CD18 (#555924), PE mouse anti-human CD16 (#555407), PE mouse anti-human CD19 (#555413), and PE mouse anti-human CD45 (#555483).

CD31 = CD31 staining of core biopsies by IHC; assay type: in vivo, human; settings: day 21 (16/20 at baseline)
Protocol: All IHC analyses and scoring for extent (0 to 4) and intensity (0 to 3) were performed at the Houston Memorial Hermann Pathology laboratory as previously described. After antigen retrieval (Tris-Cl, pH 9.0), paraffin-embedded sections of sample tumors were incubated for 1 h at room temperature with the following antibodies: anti-human CXCR1 (rabbit polyclonal to CXCR1 - C-terminal, ab137351; Abcam, Cambridge, MA), anti-human CD31 (clone JC70A, #IS610; Dako, Glostrup, Denmark), anti-human p62 (clone SQSTM1/p62, # 5114; Cell Signaling), anti-human AKT (rabbit polyclonal to pan-AKT, # ab8805; Abcam), anti-human FAK (clone pY861, #44-626G; Invitrogen, Qiagen, Carlsbad, CA), anti-human phospho-AKT (clone Ser473 (D9E), #4060; Cell Signaling), anti-human phospho-FAK (clone Y397, #ab4803; Abcam), and anti-human LC3B (clone D11, #3868; Cell Signaling). For the evaluation of extent, the following semi-quantitative score method (0 to 4) was used: 0, no positive cells; 1, 1–25%; 2, 26–50%; 3, 51–75%; and 4, 76–100%.

monocytes and PMNs = assay: Intracellular cytokine production by monocytes and PMNs by flow cytometry; assay type: in vivo, human; settings: without or with activation by LPS and/or CXCL8; data not shown
Protocol: Intracellular cytokine production by peripheral blood monocytes and PMNs were assessed using a modification of previously published procedure. Briefly, monocytes and PMNs in whole blood were activated with CXCL8 (10nM), LPS ([…]), and LPS+CXCL8 for 2 hours at 37 °C before the addition of Brefeldin A (BFA) for another 3 hours to block the transportation of the intracellular cytokines from the Golgi to the cell surface. Thereafter, red blood cells were lysed with 1×FACSTM Lysing Solution (BD Biosciences) and the membrane of activated cells permeabilized with 1×FACSTM Perm 2 solution (BD Biosciences). Next, the activated monocytes and PMNs were stained with fluorochrome-conjugated specific antibodies to IL-1β, TNF-α, CXCL8, and IL-6 before the samples were analyzed by flow cytometry. The percentages of monocytes and PMNs that produced IL-1β, TNF-α, CXCL8, and IL-6 were recorded.

CXCR1/2+ cells = test system: CXCR1/2+ cells; parameters: method as in PMID 22996693; settings: preclinical models; cited from earlier work
[3] = female, human, in vivo, po, 1000 mg

CC(C)Cc1ccc([C@@H](C)C(=O)NS(C)(=O)=O)cc1 [reparixin]
Tmax [1, 3]: 1 h
half-life [1, 3]: ~2 h
bioavailability following oral administration ([1]; human, in vivo, po): high bioavailability
systemic exposure (Cmax and AUClast), change from day 1 to day 21 ([1]; human, in vivo, po, 1000 mg): did not change
accumulation upon multiple dosing ([1]; oral 1000 mg t.i.d. for 21 days): no accumulation
patients negative for CSC at both baseline and day 21 [2]: 6 patients
patients with CSC (transcripts for CD44 but not CD24) at both baseline and day 21 [2]: Five
ALDH1 transcripts at day 21 ([2]; 1/14 expressed ALDH1 at baseline): all patients were negative
patients with CXCR1+ tumor cells decreased at day 21 (CXCR1+ cells): 7/13
patients with all viable CXCR1+ cells reduced at day 21 vs baseline (CXCR1+ cells): 6/13
patients with parallel decrease in both CXCR1+ cell populations (CXCR1+ cells): 4/13
patients with value of 0 for CD31, extent and intensity (CD31): 11/15
production of inflammatory cytokines (CXCL8, IL-6, TNF-α, IL-1β) by monocytes and PMNs (monocytes and PMNs): No statistically significant difference
recruitment of CXCR1/2+ cells from the bloodstream to visceral sites (CXCR1/2+ cells): reduce
